Measurements taken from article PMC9658586, “1,4-Naphthoquinone Motif in the Synthesis of New Thiopyrano[2,3-d]thiazoles as Potential Biologically Active Compounds” (Molecules, 2022).
Where two headings read alike, the source gives them in different places.

Assays:
[1] = system: human epidermoid cervix carcinoma KB3-1 cells; assay: MTT cell viability assay, KB3-1; assay type: cell-based
Description: (§1) The MTT cell viability assay was performed 72 h after cells treatment with various concentrations of studied compounds and doxorubicin, a reference drug. […] It is known that ABCB1 (P-glycoprotein), MRP1/ABCC1 (multidrug resistance protein 1), and BCRP/BCG2 (breast cancer resistance protein) have been reported to be key players in resistance to chemotherapy. […] The p53 has diverse mutations in almost all human tumors, stimulating their hyper-proliferation, invasion/metastasis, and thus, influencing the potency of various chemotherapeutics (i.e., platins and anti-metabolites).
(§2) Human colon carcinoma HCT116 cells, human breast adenocarcinoma cells of MCF-7 line, human T-leukemia Jurkat cells, human chronic myelogenous leukemia K562 cells, and human keratinocytes of HaCaT line were from the Cell Collection of R.E. Kavetsky Institute of Experimental Pathology, Oncology and Radiobiology (Kyiv, Ukraine). Murine macrophages of J774.2 line were a generous gift from Professor Sir John Vane (William Harvey Research Institute, London, UK) via Professor Janusz Marcinkiewicz (Jagiellonian University Medical College, Krakow, Poland). Human colon carcinoma HCT116 p53-/- cells with knockdown of P53 gene, as well as human epidermoid cervix carcinoma KB3-1 cells and its ABCB1-overexpressing subline KBC-1, were kindly provided by Professor W. Berger (Institute of Cancer Research, Medical University of Vienna, Austria). […] Human leukemia monocytic THP-1 cells were kindly provided by Professor M. Herrmann (Department of Internal Medicine, Institute for Clinical Immunology and Rheumatology, University of Erlangen-Nuremberg, Germany). Cells were cultured in DMEM or RPMI-1640 medium supplemented with 10% fetal bovine serum (all were purchased from Biowest, Nuaille, France) at 37 °C in a humidified atmosphere containing 5% CO2.
(§3) MTT assay was used to examine the viability of tumor and pseudo-normal cells after their treatment with studied thiopyrano[2,3-d]thiazole derivatives and doxorubicin (Actavis S.R.L., Bucharest, Romania). Cells were seeded in 96-well plates at a density of 3–5 × 103. After 24 h, cells were treated with compound […], 1,4-NQ (0.1–100 µM), and doxorubicin (0.1–100 µM). After incubation for 72 h, MTT reagent (Sigma-Aldrich, St. Louis, MO, USA) was added to each well, according to the Sigma-Aldrich protocol. An absorbance Reader BioTek ELx800 (BioTek Instruments, Inc., Winooski, VT, USA) was used to measure the reaction product.

[2] = system: Human colon carcinoma HCT116 cells (HCT116wt); assay: MTT cell viability assay, HCT116wt; assay type: cell-based
Description: as §1, §2, §3

[3] = system: Human colon carcinoma HCT116 p53-/- cells; assay: MTT cell viability assay, HCT116 p53-/-; assay type: cell-based; settings: MTT, 72 h, read-out: IC50, HCT116 p53-/-
Description: as §1, §2, §3

[4] = system: human breast adenocarcinoma cells of MCF-7 line; assay: MTT cell viability assay, MCF-7; assay type: cell-based
Description: as §1, §2, §3

[5] = system: Murine macrophages of J774.2 line; assay: MTT cell viability assay, J774.2; assay type: cell-based; settings: pseudo-normal murine macrophages
Description: as §1, §2, §3

[6] = system: human chronic myelogenous leukemia K562 cells; assay: MTT cell viability assay, K562; assay type: cell-based
Description: as §1, §2, §3

[7] = system: KBC-1 (ABCB1-overexpressing subline of KB3-1); assay: MTT cell viability assay, KBC-1; assay type: cell-based; settings: Homo sapiens, 72 h
Description: as §1
as §2, with “Cells were cultured in DMEM or RPMI-1640 medium supplemented with 10% fetal bovine serum (all were purchased from Biowest, Nuaille, France) at 37 °C in a humidified atmosphere containing 5% CO2.” left out
MTT assay was used to examine the viability of tumor and pseudo-normal cells after their treatment with studied thiopyrano[2,3-d]thiazole derivatives and doxorubicin (Actavis S.R.L., Bucharest, Romania). […] An absorbance Reader BioTek ELx800 (BioTek Instruments, Inc., Winooski, VT, USA) was used to measure the reaction product.

[8] = system: isolated normal human peripheral blood lymphocytes; assay: MTT cell viability assay, isolated lymphocytes; assay type: cell-based; settings: Homo sapiens, Lymphocyte, 72 h, read-out: IC50, Isolated lymphocytes, MTT, 72 h, normal human peripheral blood lymphocytes
Description: We continued the cytotoxicity study of synthesized derivatives 3.1–3.6 toward tumor and pseudo-normal cells in vitro. The MTT cell viability assay was performed 72 h after cells treatment with various concentrations of studied compounds and doxorubicin, a reference drug. […] The THP-1 cells, monocytes isolated from peripheral blood from an acute monocytic leukemia patient, were also sensitive to the 3.6 treatment. […] The 3.6 inhibited the viability of epidermoid carcinoma (KB3-1 and its ABCB1-overexpressing subline KBC-1) and colon carcinoma (HCT116wt and its p53 knockdown subline HCT116 p53-/-) cells. It is known that ABCB1 (P-glycoprotein), MRP1/ABCC1 (multidrug resistance protein 1), and BCRP/BCG2 (breast cancer resistance protein) have been reported to be key players in resistance to chemotherapy. […] Thus, the p53 status of colon carcinoma cells influenced the anti-tumor effects of the studied 3,5,10,11-tetrahydro-2H-benzo[6,7]thiochromeno[2,3-d][1, 3]thiazole-2,5,10-trione. The p53 has diverse mutations in almost all human tumors, stimulating their hyper-proliferation, invasion/metastasis, and thus, influencing the potency of various chemotherapeutics (i.e., platins and anti-metabolites). […] Based on our findings, one can assume a p53-dependent mode of action for 3.6 toward colon cancer cells.
as §3
The study protocol with human lymphocytes isolated from healthy adult peripheral blood was approved by BioEthics Committee of the Institute of Cell Biology of National Academy of Sciences of Ukraine (protocol No 2 from 27 January 2019), and with written consent of donor.

salmon sperm DNA = assay: DNA/methyl green colorimetric (replacement) assay; assay type: binding; settings: 1µM
Description: In addition, we used DNA/methyl green colorimetric assay to study the possible interaction of compound 3.6 in DNA. […] This assay was used to measure the displacement of methyl green from DNA by compounds with the ability to intercalate DNA [54].
The capacity of the tested compounds to intercalate into salmon sperm DNA was determined using the methyl green assay. Briefly, salmon sperm DNA (10 mg/mL) was incubated for 1 h at 37 °C with 15 µL of methyl green solution (1 mg/mL in H2O). The compounds were added at concentrations 1 and 10 µM/mL and incubated at 37 °C in the dark for 2 h. Reduction of the absorbance of methyl green at 642 nm induced by the test compounds was measured with a multiplate reader, Plate Reader BioTek Lx80 ( BioTek Instruments, Inc., Winooski, VT, USA). Doxorubicin, a well-known intercalating agent, was used as a positive control.

[9] = system: panel of sixty cancer cell lines; assay: NCI single-dose (10 μM) anticancer screen, sulforhodamine B, 60-cell-line panel; assay type: cell-based, human; settings: 48 h
Description: (§4) Considering the results of previous studies of fused thiazolidinones and their analogs, a series of thiopyrano[2,3-d]thiazoles with naphthoquinone fragments in the structure were studied for their anticancer activity. Thus, synthesized thiopyranothiazole derivatives 3.5 and 3.6 were selected by the National Cancer Institute (NCI), U.S., for their anticancer activity at 10 μM concentration toward a panel of sixty cancer cell lines representing nine different types (leukemia, melanoma, lung, colon, CNS, ovarian, renal, prostate, and breast cancers) (Figures S13–S14). Selection for screening based on new derivatives’ ability to add diversity to the NCI small molecules collection and anticancer assays were performed according to the NCI guidelines and protocols previously described. The compounds were added at the mentioned concentration, and the cell cultures were incubated for 48 h. The results for each compound were reported as the growth percent (GP%) of treated cells compared with untreated control cells.
Anticancer in vitro assay was performed on the human tumor cell lines panel derived from nine neoplastic diseases by the protocol of the Drug Evaluation Branch, National Cancer Institute, Bethesda, MD, USA [44, 45, 46]. Tested compounds were added to the culture at a single concentration (10^−5 M), and the cultures were incubated for 48 h. Endpoint determinations were made with a protein binding dye, sulforhodamine B. Results for each tested compound were reported as the GP% of the treated cells compared to untreated control cells. GP% was spectrophotometrically evaluated vs. controls not treated with test agents.

RPMI-8226/Leukemia = assay: NCI single-dose screen, RPMI-8226; assay type: cell-based, human; settings: 10 μM, 48 h
Description: as §4
(§5) Anticancer in vitro assay was performed on the human tumor cell lines panel derived from nine neoplastic diseases by the protocol of the Drug Evaluation Branch, National Cancer Institute, Bethesda, MD, USA [44, 45, 46]. […] GP% was spectrophotometrically evaluated vs. controls not treated with test agents.

SR/Leukemia = assay: NCI single-dose screen, SR; assay type: cell-based, human; settings: 10 μM, 48 h
Description: as §4, §5

[10] = system: EKVX/Non-Small Cell Lung Cancer; assay: NCI single-dose screen, EKVX; assay type: cell-based, human; settings: 10 μM, 48 h
Description: as §4, §5

IGROV1/Ovarian Cancer = assay: NCI single-dose screen, IGROV1; assay type: cell-based, human; settings: 10 μM, 48 h
Description: as §4, §5

UO-31/Renal Cancer = assay: NCI single-dose screen, UO-31; assay type: cell-based, human; settings: 10 μM, 48 h
Description: as §4, §5

T-47D/Breast Cancer = assay: NCI single-dose screen, T-47D; assay type: cell-based, human; settings: 10 μM, 48 h
Description: as §4, §5

O=C1C2=C(C(=O)c3ccccc31)C(C=Cc1ccccc1)c1sc(=O)[nH]c1S2 (stereo not shown) [Compound 3.1, 11-Styryl-3,11-dihydro-2H-benzo [6,7]thiochromeno [2,3-d]thiazole-2,5,10-trione]
IC50 ([1]; Homo sapiens, KB 3-1, 72 h): 37 µM | IC50 ([2]; Homo sapiens, HCT-116, 72 h): 29.2 µM | IC50 ([3]; Homo sapiens, HCT-116): 40.3 µM | IC50 ([4]; Homo sapiens, MCF7, 72 h): 9.19 µM | IC50 ([5]; Mus musculus, J774.2, 72 h): 24.4 µM | IC50 ([6]; Homo sapiens, K562, 72 h): 43.7 µM | melting point: 338 to 340 °C

O=C1C2=C(C(=O)c3ccccc31)C(C=Cc1ccccc1[N+](=O)[O-])c1sc(=O)[nH]c1S2 (stereo not shown) [Compound 3.2, 11-(2-Nitrostyryl)-3,11-dihydro-2H-benzo[6,7]thiochromeno[2,3-d]thiazole-2,5,10-trione]
IC50 ([1]; Homo sapiens, KB 3-1, 72 h): 39.2 µM | IC50 ([2]; Homo sapiens, HCT-116, 72 h): 6.81 µM | IC50 ([3]; Homo sapiens, HCT-116): > 50 µM | IC50 ([4]; Homo sapiens, MCF7, 72 h): 8.47 µM | IC50 ([5]; Mus musculus, J774.2, 72 h): 0.74 µM | IC50 ([6]; Homo sapiens, K562, 72 h): 26 µM | melting point: 330 to 332 °C

11-(2-Phenylprop-1-en-1-yl)-3,11-dihydro-2H-benzo[6,7]thiochromeno[2,3-d]thiazole-2,5,10-trione [Compound 3.3]
IC50 ([1]; 72 h): 28.8 µM | IC50 ([2]; 72 h): 15.8 µM | IC50 [3]: 11.1 µM | IC50 ([4]; 72 h): 26.8 µM | IC50 ([5]; 72 h): 30.5 µM | IC50 ([6]; 72 h): 13 µM

CC1(C)C2=C(Sc3[nH]c(=O)sc31)C(=O)c1ccccc1C2=O [Compound 3.4, 11,11-Dimethyl-3,11-dihydro-2H-benzo[6,7]thiochromeno[2,3-d]thiazole-2,5,10-trione]
IC50 ([1]; Homo sapiens, KB 3-1, 72 h): 26 µM | IC50 ([2]; Homo sapiens, HCT-116, 72 h): 5.54 µM | IC50 ([3]; Homo sapiens, HCT-116): 25.2 µM | IC50 ([4]; Homo sapiens, MCF7, 72 h): 34.3 µM | IC50 ([5]; Mus musculus, J774.2, 72 h): 11.1 µM | IC50 ([6]; Homo sapiens, K562, 72 h): 7.11 µM | melting point: 230 to 232 °C

O=C1C=CC(=O)c2ccccc21 [1,4-NQ, 1,4-naphthoquinone]
IC50 ([1]; Homo sapiens, KB 3-1, 72 h): 20.7 µM | IC50 [7]: 8.33 µM | IC50 [8]: 62.9 µM | percentage of methyl green replacement (salmon sperm DNA): 65%

O=C1C2=C(C(=O)c3ccccc31)C1(CCCC1)c1sc(=O)[nH]c1S2 [Compound 3.5, Spiro[benzo[6,7]thiochromeno[2,3-d]thiazole-11,1’-cyclopentane]-2,5,10(3H)-trione]
Mean Growth, % ([9]; growth percent vs untreated control, 60 cell lines): 88.33% | Range of Growth, % ([9]; range over 60 cell lines): 51.21 to 126.93% | Most Sensitive Cell Line Growth, % (RPMI-8226/Leukemia) (RPMI-8226/Leukemia): 53.82% | Most Sensitive Cell Line Growth, % (SR/Leukemia) (SR/Leukemia): 59.89% | Most Sensitive Cell Line Growth, % (EKVX/Non-Small Cell Lung Cancer) [10]: 54.98% | Most Sensitive Cell Line Growth, % (IGROV1/Ovarian Cancer) (IGROV1/Ovarian Cancer): 55.15% | Most Sensitive Cell Line Growth, % (UO-31/Renal Cancer) (UO-31/Renal Cancer): 55.54% | Most Sensitive Cell Line Growth, % (T-47D/Breast Cancer) (T-47D/Breast Cancer): 51.21% | IC50 ([1]; Homo sapiens, KB 3-1, 72 h): > 50 µM | IC50 ([2]; Homo sapiens, HCT-116, 72 h): 43.6 µM | IC50 ([3]; Homo sapiens, HCT-116): > 50 µM | IC50 ([4]; Homo sapiens, MCF7, 72 h): > 50 µM | IC50 ([5]; Mus musculus, J774.2, 72 h): > 50 µM | IC50 ([6]; Homo sapiens, K562, 72 h): > 50 µM | melting point: 231 to 233 °C
